In data set [1] the test system is HT-29 tumor xenograft. The data set is described as follows: HT-29 tumor xenograft model. It counts as in vivo, athymic nude mice. The settings on record: 100 or 200 mg/kg qd by gavage, 18 days. As for the experimental part:
Tumor volumes were calculated using caliper measurements twice per week using the formula volume (mm^3) = (length × width^2)/2. Body weights were measured daily during the first week and twice per week thereafter. […] The protocols of the in vivo study were approved by the Animal Care and User Committee at National Taiwan University.

The target of data set [2] is T1, HDAC8 (Homo sapiens, UniProt Q9BY41).
T1 sequence (Q9BY41 1-377): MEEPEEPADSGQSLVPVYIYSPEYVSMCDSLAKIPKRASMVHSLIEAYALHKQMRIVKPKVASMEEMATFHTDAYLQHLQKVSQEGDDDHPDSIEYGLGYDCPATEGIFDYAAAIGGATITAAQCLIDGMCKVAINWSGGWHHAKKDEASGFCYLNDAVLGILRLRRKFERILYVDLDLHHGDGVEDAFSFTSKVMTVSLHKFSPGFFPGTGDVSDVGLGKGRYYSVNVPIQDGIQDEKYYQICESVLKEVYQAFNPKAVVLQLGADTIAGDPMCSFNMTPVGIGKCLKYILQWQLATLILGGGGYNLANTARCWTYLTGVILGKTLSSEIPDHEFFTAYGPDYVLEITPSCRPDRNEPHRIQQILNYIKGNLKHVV
The data set is described as follows: Fluorometric HDAC activity assay, recombinant isoform.
Experimental: (§2) Two different types of in vitro HDAC activity assays were used (with or without cells). Test compounds were incubated with individual recombinant HDAC isoforms (HDAC 1-9) and the assay was performed according to the manufacturer's protocol (BPS Biosciences, USA).

Data set [3] deals with HDAC5 (Homo sapiens, UniProt Q9UQL6). Described as above.
Chain of HDAC5 (Q9UQL6 whole entry): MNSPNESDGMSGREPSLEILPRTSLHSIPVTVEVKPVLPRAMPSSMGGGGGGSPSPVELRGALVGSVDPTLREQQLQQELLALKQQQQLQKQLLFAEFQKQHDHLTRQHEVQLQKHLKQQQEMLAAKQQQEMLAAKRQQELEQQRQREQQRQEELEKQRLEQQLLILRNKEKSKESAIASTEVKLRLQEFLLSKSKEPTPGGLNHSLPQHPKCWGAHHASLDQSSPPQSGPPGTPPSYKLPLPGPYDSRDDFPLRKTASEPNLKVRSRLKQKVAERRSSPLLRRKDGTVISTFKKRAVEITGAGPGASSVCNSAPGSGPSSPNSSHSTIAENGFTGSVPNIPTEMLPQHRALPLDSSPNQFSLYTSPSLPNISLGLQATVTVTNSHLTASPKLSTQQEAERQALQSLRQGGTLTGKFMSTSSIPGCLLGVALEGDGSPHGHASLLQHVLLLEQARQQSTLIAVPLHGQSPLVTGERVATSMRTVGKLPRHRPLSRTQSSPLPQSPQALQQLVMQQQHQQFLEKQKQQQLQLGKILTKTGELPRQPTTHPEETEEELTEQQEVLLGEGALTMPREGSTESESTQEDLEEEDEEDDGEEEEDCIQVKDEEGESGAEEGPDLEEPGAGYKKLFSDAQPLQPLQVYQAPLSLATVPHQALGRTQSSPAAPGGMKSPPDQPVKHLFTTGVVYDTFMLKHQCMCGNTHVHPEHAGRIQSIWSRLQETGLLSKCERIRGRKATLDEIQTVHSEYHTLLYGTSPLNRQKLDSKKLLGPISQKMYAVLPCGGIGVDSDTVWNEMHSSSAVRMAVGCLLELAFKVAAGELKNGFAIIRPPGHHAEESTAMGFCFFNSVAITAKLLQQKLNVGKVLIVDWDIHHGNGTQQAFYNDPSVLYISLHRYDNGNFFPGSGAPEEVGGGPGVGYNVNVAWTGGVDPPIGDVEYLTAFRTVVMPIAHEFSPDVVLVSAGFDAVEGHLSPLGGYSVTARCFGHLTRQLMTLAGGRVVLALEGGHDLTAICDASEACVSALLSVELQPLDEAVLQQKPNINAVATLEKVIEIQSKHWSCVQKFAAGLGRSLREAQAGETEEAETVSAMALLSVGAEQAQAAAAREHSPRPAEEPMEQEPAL
Experimental: as §2
The subject of data set [4] is A549. The data set is described as follows: Sulforhodamine B (SRB) growth inhibition assay. The data set is classed as cell-based, human. The following applies: A549, ± SE. The protocol:
(§1) Cells were inoculated into 96-well plates in growth medium. After 24 h, cells were fixed with 10% trichloroacetic acid (TCA), to represent a measurement of the cell population at the time of drug addition (Tz). After incubation with vehicle (0.1% DMSO) or different concentrations of compound for 48 h (Tt), cells were fixed with 10% TCA and stained with 0.4% SRB. After staining, unbound SRB was removed by 1% acetic acid. Bound SRB was solubilized with 10 mM trizma base and the absorbance was measured at 515 nm. Percentage of growth inhibition was calculated as: 100−[(Tt-Tz)/(C-Tz)] ×100. Tt represents absorbance of compound-treated group, and C means absorbance of vehicle-treated group.

Data set [5] has as its system Hep3B. The data set is described as follows: Sulforhodamine B (SRB) growth inhibition assay. The data set is classed as cell-based, human. The following applies: ± SE. The protocol:
as §1

Data set [6] has as its system HT-29 cells. The data set is described as follows: Sulforhodamine B (SRB) growth inhibition assay. It counts as cell-based, human. As for the experimental part:
as §1

Data set [7] has as its system HCT116. The data set is described as follows: Sulforhodamine B (SRB) growth inhibition assay. It counts as cell-based, human. The following applies: HCT116, ± SE. As for the experimental part: as §1
Data set [8] addresses HDAC1 (Homo sapiens, UniProt Q13547). The data set is described as follows: Fluorometric HDAC activity assay, recombinant isoform.
Experimental: as §2
The target in data set [9] is T2, HDAC6 (Homo sapiens, UniProt Q9UBN7).
T2 sequence (Q9UBN7 1-1215): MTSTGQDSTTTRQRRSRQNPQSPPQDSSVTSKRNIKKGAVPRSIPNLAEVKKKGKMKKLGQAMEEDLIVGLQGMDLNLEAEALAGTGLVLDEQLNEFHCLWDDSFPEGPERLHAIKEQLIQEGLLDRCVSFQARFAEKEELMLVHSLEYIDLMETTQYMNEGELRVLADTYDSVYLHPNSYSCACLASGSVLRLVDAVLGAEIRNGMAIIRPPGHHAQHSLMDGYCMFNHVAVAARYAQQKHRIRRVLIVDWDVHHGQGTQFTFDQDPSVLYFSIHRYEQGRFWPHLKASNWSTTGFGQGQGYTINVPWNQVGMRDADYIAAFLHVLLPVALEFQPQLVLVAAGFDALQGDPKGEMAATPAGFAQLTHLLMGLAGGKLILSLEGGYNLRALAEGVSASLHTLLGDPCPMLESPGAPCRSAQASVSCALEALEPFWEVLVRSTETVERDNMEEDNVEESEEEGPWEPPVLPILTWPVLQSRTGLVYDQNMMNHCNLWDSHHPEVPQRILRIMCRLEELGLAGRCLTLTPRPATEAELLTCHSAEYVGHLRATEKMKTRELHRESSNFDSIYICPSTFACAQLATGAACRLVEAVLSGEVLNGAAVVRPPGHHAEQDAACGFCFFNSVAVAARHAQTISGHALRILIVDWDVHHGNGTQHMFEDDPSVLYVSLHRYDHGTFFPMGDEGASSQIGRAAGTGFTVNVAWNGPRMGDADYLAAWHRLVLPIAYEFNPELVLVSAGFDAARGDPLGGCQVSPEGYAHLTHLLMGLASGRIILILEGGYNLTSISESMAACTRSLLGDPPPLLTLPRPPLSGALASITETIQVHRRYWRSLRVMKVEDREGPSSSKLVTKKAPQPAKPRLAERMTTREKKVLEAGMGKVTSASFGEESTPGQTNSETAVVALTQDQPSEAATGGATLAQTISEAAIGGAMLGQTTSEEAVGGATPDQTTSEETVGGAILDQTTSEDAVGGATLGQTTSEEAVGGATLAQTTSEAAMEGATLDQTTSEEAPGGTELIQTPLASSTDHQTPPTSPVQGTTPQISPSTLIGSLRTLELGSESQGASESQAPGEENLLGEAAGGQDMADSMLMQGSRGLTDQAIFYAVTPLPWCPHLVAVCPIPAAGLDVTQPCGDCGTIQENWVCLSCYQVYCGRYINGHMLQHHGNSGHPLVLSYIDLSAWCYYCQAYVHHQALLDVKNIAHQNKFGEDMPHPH
Described as above.
Experimental: as §2

For data set [10], the system named is HT-29 cells. The data set is described as follows: Cell death detection ELISA (DNA fragmentation). The settings on record: 24 h, compared with SAHA. It counts as cell-based, human. The protocol:
Cell Death Detection ELISA Kit (Roche Diagnostics, Switzerland) was used to analyze drug-induced apoptosis. […] Adherent cells were collected and the assay was performed according to the manufacturer's protocol.

Data set [11] addresses HDAC4 (Homo sapiens, UniProt P56524). The data set is described as follows: Fluorometric HDAC activity assay, recombinant isoform.
Experimental: as §2
Data set [12] addresses HDAC2 (Homo sapiens, UniProt Q92769). Described as above.
Experimental: as §2
Data set [13] has as its target T3, HDAC7 (Homo sapiens, UniProt Q8WUI4).
T3 sequence (Q8WUI4 1-952): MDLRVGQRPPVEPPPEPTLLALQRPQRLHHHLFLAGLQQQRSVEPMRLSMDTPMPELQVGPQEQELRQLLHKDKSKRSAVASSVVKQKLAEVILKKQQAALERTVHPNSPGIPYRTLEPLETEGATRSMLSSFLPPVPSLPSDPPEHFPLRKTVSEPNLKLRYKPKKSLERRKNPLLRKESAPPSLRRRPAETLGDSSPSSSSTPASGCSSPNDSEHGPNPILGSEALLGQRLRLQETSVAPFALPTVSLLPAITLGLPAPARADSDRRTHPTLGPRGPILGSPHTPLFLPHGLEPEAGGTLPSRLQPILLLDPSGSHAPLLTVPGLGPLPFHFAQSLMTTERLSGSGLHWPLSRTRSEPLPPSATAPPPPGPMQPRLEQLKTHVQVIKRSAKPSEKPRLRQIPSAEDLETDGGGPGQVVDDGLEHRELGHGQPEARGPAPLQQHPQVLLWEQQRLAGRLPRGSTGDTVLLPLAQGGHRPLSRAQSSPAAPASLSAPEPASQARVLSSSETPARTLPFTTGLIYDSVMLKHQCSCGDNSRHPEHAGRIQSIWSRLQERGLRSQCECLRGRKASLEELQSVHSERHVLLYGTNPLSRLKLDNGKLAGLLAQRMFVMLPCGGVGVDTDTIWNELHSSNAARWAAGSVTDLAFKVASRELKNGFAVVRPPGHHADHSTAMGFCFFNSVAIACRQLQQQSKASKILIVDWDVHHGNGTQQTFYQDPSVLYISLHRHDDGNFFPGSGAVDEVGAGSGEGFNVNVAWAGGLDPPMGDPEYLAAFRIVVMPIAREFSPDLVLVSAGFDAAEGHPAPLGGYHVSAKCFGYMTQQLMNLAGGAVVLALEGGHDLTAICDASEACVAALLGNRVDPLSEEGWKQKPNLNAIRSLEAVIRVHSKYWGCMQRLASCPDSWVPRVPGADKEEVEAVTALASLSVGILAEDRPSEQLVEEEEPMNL
The description is as above.
Experimental: as §2

The test system of data set [14] is PC3. The data set is described as follows: Sulforhodamine B (SRB) growth inhibition assay. It counts as cell-based. The settings on record: Homo sapiens, PC-3; PC3, ± SE. As for the experimental part:
as §1, with “Bound SRB was solubilized with 10 mM trizma base and the absorbance was measured at 515 nm.” left out

For data set [15], the system named is HUVEC cells. The data set is described as follows: MTT cell viability assay in normal cells. The settings on record: 24 h. It counts as cell-based, human. On the technique in general: Formazan colour is commonly taken as a measure of viable cells.
Experimental: Then, cell viability was measured by the mitochondrial MTT reduction activity assay.
In data set [16] the test system is total HDACs in HT-29 cells. The data set is described as follows: Fluorometric HDAC activity assay, total HDACs in cell lysates. The settings on record: read-out: IC50 inhibition of total HDACs, HT-29 cells treated 24 h.
Experimental: as §2
Data set [17] deals with HDAC9 (Homo sapiens, UniProt Q9UKV0). The data set is described as follows: Fluorometric HDAC activity assay, recombinant isoform.
Chain of HDAC9 (Q9UKV0 whole entry, canonical isoform): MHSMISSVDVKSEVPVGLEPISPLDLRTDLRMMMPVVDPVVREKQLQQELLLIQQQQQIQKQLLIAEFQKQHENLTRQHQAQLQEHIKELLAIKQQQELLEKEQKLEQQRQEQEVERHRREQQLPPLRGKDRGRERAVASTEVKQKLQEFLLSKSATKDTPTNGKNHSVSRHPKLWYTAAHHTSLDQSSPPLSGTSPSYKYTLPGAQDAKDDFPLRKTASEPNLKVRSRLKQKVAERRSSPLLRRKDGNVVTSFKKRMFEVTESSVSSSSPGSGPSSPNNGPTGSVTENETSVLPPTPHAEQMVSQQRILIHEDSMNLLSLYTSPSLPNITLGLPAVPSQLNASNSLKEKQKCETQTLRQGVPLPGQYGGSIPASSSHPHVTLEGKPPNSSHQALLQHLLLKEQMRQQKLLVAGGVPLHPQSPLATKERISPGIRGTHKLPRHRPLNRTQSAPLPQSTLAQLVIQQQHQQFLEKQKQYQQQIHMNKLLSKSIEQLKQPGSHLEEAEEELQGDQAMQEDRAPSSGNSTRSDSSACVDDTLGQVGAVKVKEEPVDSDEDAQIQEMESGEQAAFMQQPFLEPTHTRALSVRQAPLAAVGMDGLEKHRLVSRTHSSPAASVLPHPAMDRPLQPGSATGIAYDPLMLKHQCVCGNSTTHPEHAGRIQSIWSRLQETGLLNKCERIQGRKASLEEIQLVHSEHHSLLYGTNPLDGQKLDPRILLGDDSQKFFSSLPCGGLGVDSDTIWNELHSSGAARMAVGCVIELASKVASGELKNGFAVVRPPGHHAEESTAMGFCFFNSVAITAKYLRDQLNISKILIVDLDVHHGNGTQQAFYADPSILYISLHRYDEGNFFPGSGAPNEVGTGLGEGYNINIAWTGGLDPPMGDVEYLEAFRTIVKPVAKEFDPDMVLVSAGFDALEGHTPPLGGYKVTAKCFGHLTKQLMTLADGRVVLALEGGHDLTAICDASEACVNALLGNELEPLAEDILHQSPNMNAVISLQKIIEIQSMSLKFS
Experimental: as §2
Data set [18] relates to HT-29 cells. The data set is described as follows: MTT cell viability assay. It counts as cell-based. The following applies: Homo sapiens, 24 h, read-out: IC50 (cell death, MTT). The protocol: Cells were seeded in 96-well plates in growth medium overnight. Cells were treated with vehicle (0.1% DMSO) or different concentrations of compound for 24 h, then incubated with MTT reagent at 37°C for 1 h. After incubation, the insoluble formazan produced in living cells. The formazan crystals were dissolved with DMSO and the absorbance was measured at 550 nm.

The subject of data set [19] is HT-29 cells. Set-up: method as in PMID 10200307. The following applies: cited from earlier work.

The values below come from article PMC4170623, “A novel class I HDAC inhibitor, MPT0G030, induces cell apoptosis and differentiation in human colorectal cancer cells via HDAC1/PKCδ and E-cadherin” (Oncotarget, 2014).

Where two headings read alike, the source gives them in different places.

Chain of HDAC1 (Q13547 whole entry, canonical isoform): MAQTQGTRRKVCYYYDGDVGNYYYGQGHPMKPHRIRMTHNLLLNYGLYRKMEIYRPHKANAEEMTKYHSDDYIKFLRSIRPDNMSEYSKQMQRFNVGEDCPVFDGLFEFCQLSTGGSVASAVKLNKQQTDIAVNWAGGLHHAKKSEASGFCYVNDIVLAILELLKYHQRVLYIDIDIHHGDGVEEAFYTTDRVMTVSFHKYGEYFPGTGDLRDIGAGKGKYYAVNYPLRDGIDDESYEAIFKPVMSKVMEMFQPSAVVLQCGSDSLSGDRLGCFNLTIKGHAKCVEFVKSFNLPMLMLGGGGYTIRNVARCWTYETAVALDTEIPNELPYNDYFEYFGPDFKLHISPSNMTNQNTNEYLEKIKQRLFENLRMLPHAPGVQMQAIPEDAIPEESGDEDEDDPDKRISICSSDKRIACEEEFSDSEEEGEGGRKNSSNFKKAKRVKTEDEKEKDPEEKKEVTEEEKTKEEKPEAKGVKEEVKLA
Chain of HDAC2 (Q92769 whole entry): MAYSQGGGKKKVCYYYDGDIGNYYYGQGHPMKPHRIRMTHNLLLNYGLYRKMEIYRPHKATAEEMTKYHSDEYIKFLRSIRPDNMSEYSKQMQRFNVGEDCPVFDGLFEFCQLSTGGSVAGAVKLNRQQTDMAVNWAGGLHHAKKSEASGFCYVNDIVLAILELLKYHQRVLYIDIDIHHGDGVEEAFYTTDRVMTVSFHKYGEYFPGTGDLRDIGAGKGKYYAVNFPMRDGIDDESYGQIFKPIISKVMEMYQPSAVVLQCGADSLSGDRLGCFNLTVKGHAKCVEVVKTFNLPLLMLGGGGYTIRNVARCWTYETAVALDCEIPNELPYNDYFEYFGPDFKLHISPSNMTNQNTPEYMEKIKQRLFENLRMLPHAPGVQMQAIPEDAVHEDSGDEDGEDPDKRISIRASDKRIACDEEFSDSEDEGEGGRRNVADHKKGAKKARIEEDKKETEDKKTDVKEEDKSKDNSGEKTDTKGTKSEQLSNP
Chain of HDAC4 (P56524 whole entry, canonical isoform): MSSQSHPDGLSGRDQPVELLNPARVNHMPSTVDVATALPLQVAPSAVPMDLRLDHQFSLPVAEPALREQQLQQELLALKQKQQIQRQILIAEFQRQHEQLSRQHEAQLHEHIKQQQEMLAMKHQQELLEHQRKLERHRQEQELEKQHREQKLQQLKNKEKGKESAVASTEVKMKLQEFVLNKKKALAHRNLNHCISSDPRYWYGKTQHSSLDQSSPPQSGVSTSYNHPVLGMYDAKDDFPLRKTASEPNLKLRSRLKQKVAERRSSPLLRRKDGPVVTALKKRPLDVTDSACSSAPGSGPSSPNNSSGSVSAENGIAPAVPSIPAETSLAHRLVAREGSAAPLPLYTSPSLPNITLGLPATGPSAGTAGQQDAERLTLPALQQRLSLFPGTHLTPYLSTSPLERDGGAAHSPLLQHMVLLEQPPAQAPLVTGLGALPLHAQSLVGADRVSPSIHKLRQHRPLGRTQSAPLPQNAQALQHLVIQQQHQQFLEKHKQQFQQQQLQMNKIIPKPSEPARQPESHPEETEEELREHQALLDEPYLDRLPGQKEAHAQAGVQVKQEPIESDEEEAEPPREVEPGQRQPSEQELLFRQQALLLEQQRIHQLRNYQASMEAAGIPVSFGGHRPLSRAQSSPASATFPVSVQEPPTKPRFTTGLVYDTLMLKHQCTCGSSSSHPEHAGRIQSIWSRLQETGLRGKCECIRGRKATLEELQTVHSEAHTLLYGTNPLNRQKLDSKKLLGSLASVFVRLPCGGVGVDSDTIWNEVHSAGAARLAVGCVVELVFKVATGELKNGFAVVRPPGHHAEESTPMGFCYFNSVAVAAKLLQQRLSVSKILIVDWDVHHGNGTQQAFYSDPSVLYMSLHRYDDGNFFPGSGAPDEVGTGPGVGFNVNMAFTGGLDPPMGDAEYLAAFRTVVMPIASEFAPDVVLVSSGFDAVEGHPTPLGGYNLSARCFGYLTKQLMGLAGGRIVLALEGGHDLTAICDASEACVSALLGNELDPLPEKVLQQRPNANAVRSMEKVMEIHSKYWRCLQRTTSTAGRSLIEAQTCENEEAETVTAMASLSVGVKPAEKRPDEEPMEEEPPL

By IC50 is commonly meant the concentration that inhibits the measured activity by half. As usually defined, the GI50 is the concentration at which growth is held to half of that of the control. As to `COc1ccc(S(=O)(=O)N2CCc3cc(C=CC(=O)NO)cc(N)c32)cc1` [MPT0G030, 3-[7-amino-1-(4-methoxy-benzenesulfonyl)-2,3-dihydro-1H-indol-5-yl]-N-hydroxy-acrylamide], the Body weight result in data set [1] is reported as “not affected”. The IC50 in [2] is 3340 ± 130 nM; in data set [3], greater than 5000 nM; in [8], 75.1 ± 4.65 nM; in data set [9] it was 4368 ± 42.1 nM; in data set [11], greater than 10000 nM; in data set [12], 242 ± 47.6 nM. In addition, the IC50 in data set [13] was greater than 10000 nM; in [16], 6450 ± 1390 nM; in data set [17], greater than 10000 nM; in data set [18], 985 ± 60 nM. Further, the “Ratio: fold x IC50 relative to HDAC1 isoform” value in data set [2] (HDAC8) is recorded as 44.55; in data set [3] (HDAC5), greater than 60; in [8] (HDAC1) it was 1; in [9] (HDAC6) it was 58.19; in data set [12] (HDAC2), 3.22; in [13] (HDAC7) it was greater than 130. Moreover, the “Ratio: fold x IC50 relative to HDAC1 isoform” value in [17] (HDAC9) is recorded as greater than 130. The GI50 in [4] (Homo sapiens) stood at 180 ± 10 nM; in [5] (Homo sapiens) it was 140 ± 10 nM; in data set [6] (Homo sapiens, HT-29, 48 h), 145 ± 10 nM; in [7] (Homo sapiens, HCT-116), 110 ± 20 nM; in [14], 170 ± 10 nM. Also, in data set [9] (HDAC6), the “HDAC6 IC50 of MPT0G030 as fold x IC50 of SAHA” value is on record as greater than 55 fold. In data set [10], the “Induction of cell apoptosis (cytoplasmic histone-associated DNA fragments)” value was “more effective on inducing cell apoptosis”. In addition, the “IC50 in normal (HUVEC) cells relative to IC50 in HT-29 cells” value in [15] was “about thirty times higher”.
As for `Nc1ccccc1NC(=O)c1ccc(CNC(=O)OCc2cccnc2)cc1` [entinostat], the GI50 in data set [19] is 1290 nM.
Turning to `O=C(CCCCCCC(=O)Nc1ccccc1)NO` [SAHA, suberanilohydroxamic acid, reference compound], the GI50 in data set [4] turned out to be 2620 ± 1370 nM; in [5], 950 ± 40 nM; in data set [6] (48 h) it was 920 ± 50 nM; in [7] it was 440 ± 30 nM. Also, the IC50 in data set [16] was determined as 29600 ± 2620 nM.
